Experimental data taken from patent US20250154134A1, “COMPOUND AS FAK INHIBITOR AND USE THEREOF” (WIGEN BIOMEDICINE TECHNOLOGY (SHANGHAI) CO., LTD., priority 2022, published 2025).

Columns and labels:
PC3 cells [1] = test: PC3 cell proliferation, 3D activity assay (3D culture, 14 days); assay type: cell-based, human; conditions: Homo sapiens, PC-3, 336 h, read-out: 3D inhibitory activity against PC3 cells IC50
PC3 cells [2] = test: PC3 cell proliferation, 2D activity assay (Cell Titer-Lumi, 72 h); assay type: cell-based, human; conditions: Homo sapiens, PC-3, read-out: 2D inhibitory activity against PC3 cells IC50
FAK recombinant protein = FAK recombinant protein (Homo sapiens (Human), UniProt Q05397); test: Inhibitory activity against FAK enzyme (HTRF, TK substrate); assay type: biochemical
Chain of FAK recombinant protein (Q05397 whole entry): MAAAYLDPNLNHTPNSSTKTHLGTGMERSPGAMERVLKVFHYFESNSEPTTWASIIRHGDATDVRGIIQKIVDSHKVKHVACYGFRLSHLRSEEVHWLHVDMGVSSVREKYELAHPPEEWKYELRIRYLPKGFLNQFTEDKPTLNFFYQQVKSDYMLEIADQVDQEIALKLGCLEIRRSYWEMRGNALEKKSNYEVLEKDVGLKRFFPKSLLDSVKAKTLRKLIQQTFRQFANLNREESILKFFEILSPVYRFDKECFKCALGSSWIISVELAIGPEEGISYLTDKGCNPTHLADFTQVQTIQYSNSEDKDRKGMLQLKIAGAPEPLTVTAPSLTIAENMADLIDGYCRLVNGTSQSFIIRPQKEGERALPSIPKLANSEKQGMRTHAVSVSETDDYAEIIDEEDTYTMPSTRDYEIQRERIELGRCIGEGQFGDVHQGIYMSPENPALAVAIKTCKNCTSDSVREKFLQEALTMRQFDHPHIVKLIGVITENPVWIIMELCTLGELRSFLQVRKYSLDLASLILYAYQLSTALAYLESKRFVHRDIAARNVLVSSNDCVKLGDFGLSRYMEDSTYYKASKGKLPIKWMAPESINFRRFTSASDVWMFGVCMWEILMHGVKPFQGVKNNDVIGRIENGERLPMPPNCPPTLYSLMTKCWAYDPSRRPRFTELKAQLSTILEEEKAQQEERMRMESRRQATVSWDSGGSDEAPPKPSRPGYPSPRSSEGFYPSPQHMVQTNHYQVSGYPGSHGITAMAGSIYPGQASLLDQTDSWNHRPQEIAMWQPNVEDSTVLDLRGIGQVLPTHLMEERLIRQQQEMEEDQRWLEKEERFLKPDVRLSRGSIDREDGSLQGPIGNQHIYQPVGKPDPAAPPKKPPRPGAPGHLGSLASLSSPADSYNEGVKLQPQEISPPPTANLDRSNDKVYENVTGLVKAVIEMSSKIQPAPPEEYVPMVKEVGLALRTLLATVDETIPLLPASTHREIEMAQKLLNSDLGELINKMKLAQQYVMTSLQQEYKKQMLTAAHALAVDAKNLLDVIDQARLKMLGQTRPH
Experimental: A compound serially diluted with DMSO was mixed with a FAK recombinant protein. After the mixture was left to stand at room temperature for 10 min, a biotin-labeled TK substrate (TK) and ATP were added. […] The inhibition percentage and IC50 of the compound were calculated compared to the DMSO control group.

SMILES | IC50 (PC3 cells [1]) [µM] | IC50 (PC3 cells [2]) [µM] | IC50 (FAK recombinant protein) [µM]
COc1cc(N2CCN(CC(=O)N(C)C)CC2)ccc1Nc1ncc(Cl)c(Oc2cccc3c2C(=O)N(C)C32CC2)n1 [Compound 144] | < 0.005 | > 2 | < 0.02
COc1cc(N2CC3(CN(C)C3)C2)c(F)cc1Nc1ncc(Cl)c(Oc2cccc3c2C(=O)N(C)C32CC2)n1 [Compound 145] | 0.005 to 0.05 | > 2 | < 0.02
COc1cc(N2CC3(CN(C)C3)C2)ccc1Nc1ncc(Cl)c(Oc2cccc3c2C(=O)N(C)C32CC2)n1 [Compound 146] | 0.005 to 0.05 | > 2 | < 0.02
COc1cc(N2CCC3(CCN(C)C3)C2)c(F)cc1Nc1ncc(Cl)c(Oc2cccc3c2C(=O)N(C)C32CC2)n1 (stereo not drawn) [Compound 150] | < 0.005 | > 2 | < 0.02
COc1cc(CN2CCN(C)CC2)ccc1Nc1ncc(Cl)c(Oc2cccc3c2C(=O)N(C)C32CC2)n1 [Compound 153, 4′-((5-chloro-2-((2-methoxy-4-((4-methylpiperazin-1-yl)methyl)phenyl)amino)pyrimidin-4-yl)oxy)-2′-methylspiro[cyclopropane-1,1′-isoindolin]-3′-one] | < 0.005 | > 2 | < 0.02
COc1cc(CNC2CCN(C)CC2)ccc1Nc1ncc(Cl)c(Oc2cccc3c2C(=O)N(C)C32CC2)n1 [Compound 155] | 0.005 to 0.05 | > 2 | < 0.02
COc1cc(CN(C)C2CCN(C)CC2)c(F)cc1Nc1ncc(Cl)c(Oc2cccc3c2C(=O)N(C)C32CC2)n1 [Compound 156] | 0.005 to 0.05 | > 2 | < 0.02
COc1cc(N2CC(N3C4CCC3CN(C)C4)C2)ccc1Nc1ncc(Cl)c(Oc2cccc3c2C(=O)N(C)C32CC2)n1 [Compound 161] | < 0.005 | > 2 | < 0.02
COc1cc(N2CCC(N3CC4CC(C3)N4C)CC2)ccc1Nc1ncc(Cl)c(Oc2cccc3c2C(=O)N(C)C32CC2)n1 [Compound 163] | 0.005 to 0.05 | > 2 | < 0.02
COc1cc(N2CC3CC(C2)N3C)ccc1Nc1ncc(Cl)c(Oc2cccc3c2C(=O)N(C)C32CC2)n1 [Compound 165] | 0.005 to 0.05 | > 2 | < 0.02
COc1cc(N2C3CCC2CN(C)C3)ccc1Nc1ncc(Cl)c(Oc2cccc3c2C(=O)N(C)C32CC2)n1 [Compound 166] | 0.005 to 0.05 | > 2 | < 0.02
COc1cc(N2CCC3C(CCN3C)C2)ccc1Nc1ncc(Cl)c(Oc2cccc3c2C(=O)N(C)C32CC2)n1 (stereo not drawn) [Compound 167] | 0.005 to 0.05 | > 2 | < 0.02
COc1cc(N2CC3CN(C)CC3C2)ccc1Nc1ncc(Cl)c(Oc2cccc3c2C(=O)N(C)C32CC2)n1 (stereo not drawn) [Compound 169] | < 0.005 | > 2 | < 0.02
COc1cc(N2CCC3CN(C)CC32)ccc1Nc1ncc(Cl)c(Oc2cccc3c2C(=O)N(C)C32CC2)n1 (stereo not drawn) [Compound 172] | 0.005 to 0.05 | > 2 | < 0.02
COc1cc(N2CCC3CN(C)CC3C2)ccc1Nc1ncc(Cl)c(Oc2cccc3c2C(=O)N(C)C32CC2)n1 (stereo not drawn) [Compound 173] | < 0.005 | > 2 | < 0.02
COc1cc(C(=O)NC2CCN(C)CC2)c(F)cc1Nc1ncc(Br)c(Oc2cccc3c2C(=O)N(C)C32CC2)n1 [Compound 174, 4-((5-bromo-4-((2′-methyl-3′-oxospiro[cyclopropane-1,1′-isoindolin]-4′-yl)oxy)pyrimidin-2-yl)amino)-2-fluoro-5-methoxy-N-(1-methylpiperidin-4-yl)benzamide] | < 0.005 | > 2 | < 0.02
COc1cc(C2CCN(C)CC2)c(F)cc1Nc1ncc(Br)c(Oc2cccc3c2C(=O)N(C)C32CC2)n1 [Compound 180] | 0.005 to 0.05 | > 2 | < 0.02
COc1cc(N2CCN(C)CC2)c(F)cc1Nc1ncc(Br)c(Oc2cccc3c2C(=O)N(C)C32CC2)n1 [Compound 183] | 0.005 to 0.05 | > 2 | < 0.02
COCCN1CCN(c2cc(OC)c(Nc3ncc(Br)c(Oc4cccc5c4C(=O)N(C)C54CC4)n3)cc2F)CC1 [Compound 186] | < 0.005 | > 2 | < 0.02
COc1cc(N2CCC3(CC2)CN(C)C3)ccc1Nc1ncc(Br)c(Oc2cccc3c2C(=O)N(C)C32CC2)n1 [Compound 190] | < 0.005 | > 2 | < 0.02
COc1cc(C(=O)NC2CCN(C)CC2)ccc1Nc1ncc(C#N)c(Oc2cccc3c2C(=O)N(C)C32CC2)n1 [Compound 192, 4-((5-cyano-4-((2′-methyl-3′-oxospiro[cyclopropane-1,1′-isoindolin]-4′-yl)oxy)pyrimidin-2-yl)amino)-3-methoxy-N-(1-methylpiperidin-4-yl)benzamide] | < 0.005 | > 2 | < 0.02
COc1cc(C(=O)NC2CCN(C)CC2)c(F)cc1Nc1ncc(C#N)c(Oc2cccc3c2C(=O)N(C)C32CC2)n1 [Compound 193] | < 0.005 | > 2 | < 0.02

Other lines, results leading:

IC50 (PC3 cells [1]) [µM] | IC50 (PC3 cells [2]) [µM] | IC50 (FAK recombinant protein) [µM] | SMILES
< 0.005 | > 2 | < 0.02 | COc1cc(N2CCC3(CCN(C)CC3)CC2)ccc1Nc1ncc(Cl)c(Oc2cccc3c2C(=O)N(C)C32CC2)n1 [Compound 147]
< 0.005 | > 2 | < 0.02 | COc1cc(N2CCC3(CC2)CN(C)C3)c(F)cc1Nc1ncc(Cl)c(Oc2cccc3c2C(=O)N(C)C32CC2)n1 [Compound 148]
< 0.005 | > 2 | < 0.02 | COc1cc(N2CCC3(CC2)CN(C)C3)ccc1Nc1ncc(Cl)c(Oc2cccc3c2C(=O)N(C)C32CC2)n1 [Compound 149]
< 0.005 | > 2 | < 0.02 | COc1cc(N2CCC3(CCN(C)C3)C2)ccc1Nc1ncc(Cl)c(Oc2cccc3c2C(=O)N(C)C32CC2)n1 (stereo not drawn) [Compound 151]
0.005 to 0.05 | > 2 | < 0.02 | COc1cc(N2CCC(N(C)C)CC2)c(F)cc1Nc1ncc(Cl)c(Oc2cccc3c2C(=O)N(C)C32CC2)n1 [Compound 152]
< 0.005 | > 2 | < 0.02 | COc1cc(N2CC(N3CCN(C)CC3)C2)ccc1Nc1ncc(Cl)c(Oc2cccc3c2C(=O)N(C)C32CC2)n1 [Compound 157, 4′-((5-chloro-2-((2-methoxy-4-(3-(4-methylpiperazin-1-yl)azetidin-1-yl)phenyl)amino)pyrimidin-4-yl)oxy)-2′-methylspiro[cyclopropane-1,1′-isoindolin]-3′-one]
0.005 to 0.05 | > 2 | < 0.02 | COc1cc(N2CC(N3CC(N(C)C)C3)C2)ccc1Nc1ncc(Cl)c(Oc2cccc3c2C(=O)N(C)C32CC2)n1 [Compound 158]
0.005 to 0.05 | > 2 | < 0.02 | COc1cc(N2CC(N(C)C)C2)ccc1Nc1ncc(Cl)c(Oc2cccc3c2C(=O)N(C)C32CC2)n1 [Compound 159]
0.005 to 0.05 | > 2 | < 0.02 | COc1cc(N2C3CC2CN(C)C3)ccc1Nc1ncc(Cl)c(Oc2cccc3c2C(=O)N(C)C32CC2)n1 [Compound 164]
< 0.005 | > 2 | < 0.02 | COc1cc(N2CCC3CN(C)CCC32)ccc1Nc1ncc(Cl)c(Oc2cccc3c2C(=O)N(C)C32CC2)n1 (stereo not drawn) [Compound 168]
0.005 to 0.05 | > 2 | < 0.02 | COc1cc(N2CC3CCN(C)C3C2)ccc1Nc1ncc(Cl)c(Oc2cccc3c2C(=O)N(C)C32CC2)n1 (stereo not drawn) [Compound 170]
< 0.005 | > 2 | < 0.02 | COc1cc(C(=O)NC2CC3(CCN(C)CC3)C2)c(F)cc1Nc1ncc(Br)c(Oc2cccc3c2C(=O)N(C)C32CC2)n1 [Compound 175]
< 0.005 | > 2 | < 0.02 | COc1cc(C(=O)NC2CC3(CCN(C)CC3)C2)ccc1Nc1ncc(Br)c(Oc2cccc3c2C(=O)N(C)C32CC2)n1 [Compound 176]
0.005 to 0.05 | > 2 | < 0.02 | COc1cc(C2CCN(C)CC2)ccc1Nc1ncc(Br)c(Oc2cccc3c2C(=O)N(C)C32CC2)n1 [Compound 179]
< 0.005 | > 2 | < 0.02 | COc1cc(N2CCC(N3CCN(C)CC3)CC2)c(F)cc1Nc1ncc(Br)c(Oc2cccc3c2C(=O)N(C)C32CC2)n1 [Compound 181]
< 0.005 | > 2 | < 0.02 | COc1cc(N2CCC(N3CCN(C)CC3)CC2)ccc1Nc1ncc(Br)c(Oc2cccc3c2C(=O)N(C)C32CC2)n1 [Compound 182]
0.005 to 0.05 | > 2 | < 0.02 | COc1cc(N2CCN(C)CC2)ccc1Nc1ncc(Br)c(Oc2cccc3c2C(=O)N(C)C32CC2)n1 [Compound 184]
< 0.005 | > 2 | < 0.02 | COCCN1CCN(c2ccc(Nc3ncc(Br)c(Oc4cccc5c4C(=O)N(C)C54CC4)n3)c(OC)c2)CC1 [Compound 185]
< 0.005 | > 2 | < 0.02 | COc1cc(N2CCN(CC(=O)N(C)C)CC2)ccc1Nc1ncc(Br)c(Oc2cccc3c2C(=O)N(C)C32CC2)n1 [Compound 187]
0.005 to 0.05 | > 2 | < 0.02 | COc1cc(N2CC3(CN(C)C3)C2)ccc1Nc1ncc(Br)c(Oc2cccc3c2C(=O)N(C)C32CC2)n1 [Compound 188]
< 0.005 | > 2 | < 0.02 | COc1cc(N2CCC3(CCN(C)CC3)CC2)ccc1Nc1ncc(Br)c(Oc2cccc3c2C(=O)N(C)C32CC2)n1 [Compound 189]
0.005 to 0.05 | > 2 | < 0.02 | COc1cc(N2CCC(N(C)C)CC2)c(F)cc1Nc1ncc(Br)c(Oc2cccc3c2C(=O)N(C)C32CC2)n1 [Compound 191]
